Data from PubChem BioAssay (NCI).
“And” between values parts separate entries of the source, which are not always exact repeats. Equal values may be shown once.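 Method: 48-hour compound exposure of cells in 96-well plates, five concentrations, linear interpolation of endpoints. Abbreviation: GI50, concentration required for 50% inhibition of growth. Definition used: TGI = concentration required for complete inhibition of growth.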

Assays:
Experiment in all cases: NCI tumour cell line growth inhibition, 48 h
ACHN renal = system: ACHN renal
K-562 leukemia = system: K-562 leukemia
OVCAR-8 ovarian = system: OVCAR-8 ovarian
PC-3 prostate = system: PC-3 prostate
SK-MEL-5 melanoma = system: SK-MEL-5 melanoma
HCT-15 colon = system: HCT-15 colon
SF-295 CNS = system: SF-295 CNS
HL-60(TB) leukemia = system: HL-60(TB) leukemia

Row | SMILES | GI50 (ACHN renal) [µM] | TGI (ACHN renal) [µM] | GI50 (K-562 leukemia) [µM] | TGI (K-562 leukemia) | GI50 (OVCAR-8 ovarian) [µM] | TGI (OVCAR-8 ovarian) [µM] | GI50 (PC-3 prostate) [µM] | TGI (PC-3 prostate) [µM] | GI50 (SK-MEL-5 melanoma) [µM] | TGI (SK-MEL-5 melanoma) | GI50 (HCT-15 colon) [µM] | TGI (HCT-15 colon) | GI50 (SF-295 CNS) [µM] | TGI (SF-295 CNS) [µM] | GI50 (HL-60(TB) leukemia) [µM] | TGI (HL-60(TB) leukemia) [µM]
1 | Oc1ccc(O)c(-c2cn3ccsc3n2)c1 | 12.7 | 25.3 | 6.93 | 26.1 µM | 19.6 | 67.1 | 10.1 | 21.7 | 12.7 | 25.2 µM | 12.3 | 24.7 µM | 13.6 | 51.2 | – | –
2 | CN(C)CCNC(=O)C(C)(C)Oc1ccc(C(=O)c2ccc(Cl)cc2)cc1Cl | – | 23 | 2.42 | 9.19 µM and > 39 µM | – | 24.5 | 5.84 | 24 | 1.53 | 6.11 µM and 2.97 µM | 2.71 | 7.12 µM and 11.2 µM | 4.74 | 22.6 | 2.82 | > 29.1
3 | CN(Cc1cc(Br)cc(Br)c1O)Cc1cc(Br)cc(Br)c1O | 1.63 | 18.9 | 0.603 | 20 µM | 1.94 | 16.1 | 4.37 | 25 | 1.34 | 3.71 µM | 0.558 | 16.9 µM | 0.847 | 11.9 | 1.08 | 10.9
4 | O=CNc1ncn[nH]1 | – | > 100 | – | > 100 µM | – | > 100 | – | > 100 | – | > 100 µM | – | > 100 µM | – | > 100 | – | > 100
5 | CCN(CC)CCOc1ccccc1/C=C/c1noc2ccccc12 | – | 25.9 | – | > 100 µM | – | 24.8 | – | 19.8 | – | 16.5 µM | – | 22.4 µM | – | 29.7 | – | 40.1
6 | C/C(=C\CCc1ccoc1)CC/C=C(\C)CCCN1CCOCC1 | 8.24 | 24.1 | – | – | 13.7 | 28 | 2.02 | 10.5 | 1.7 | 3.52 µM | 2.98 | 11.8 µM | 3.95 | 16.1 | 2.5 | 5.5
7 | O=C1Nc2c(C(F)(F)F)cccc2[C@@]1(c1ccc(O)cc1)c1ccc(OC(F)(F)F)cc1 | 0.0178 | 0.0349 | 0.183 | 20.7 µM | < 0.01 | 0.0102 | < 0.0141 | 0.388 | 0.2 | 16.6 µM | – | – | 0.0193 | 0.0469 | 5.59 | 23.8
8 | Clc1ccc2c(c1)N(c1ncnc3ccc(-c4cnc5[nH]ccc5c4)cc13)CC2 | 2.12 | 28.2 | 0.542 | > 100 µM | 3.25 | 29.5 | 2.28 | 23.6 | 3.8 | 26.4 µM | 1.06 | 12.5 µM | 0.88 | 19.7 | 1.26 | > 100
9 | CCCCCCCCCCCCCC1=NCCN1CCO | 2.04 | 4.68 | 3.04 | > 100 µM | 3.4 | > 28.1 | 3.37 | > 34.5 | 3.26 | 11.2 µM | 1.92 | 4.77 µM | 2.19 | 6.18 | 3.11 | > 100
10 | Cc1ccc(C(SCC(N)C(=O)O)(c2ccc(C)cc2)c2ccc(C)cc2)cc1 (stereo not given) | 14.5 | > 68.3 | 2.96 | 12.3 µM | 2.36 | 17.4 | 2.94 | 20.1 | 0.907 | 14.7 µM | 4.54 | 27.9 µM | 1.29 | 10.3 | 2.53 | 8.09
11 | CNC(=O)OCc1c2ccncc2c(C)c2c1[nH]c1ccccc12 | – | 0.522 | – | > 100 µM | – | 2.16 | – | 20.7 | – | 0.773 µM | – | 1.76 µM | – | 4.66 | – | 0.92
12 | COc1ccc2c(c1)[nH]c(=O)c1c3cc(OC)ccc3cn21 | 0.0199 | 1.55 | < 0.01 | 0.0486 µM | 0.0343 | 1.57 | < 0.0104 | 1.52 | < 0.0128 | 0.116 µM | < 0.01 | 0.653 µM | < 0.01 | 0.18 | < 0.01 | < 0.01
13 | CCCCCCCCN(CCCCCCCC)CCCCCCNc1cc(OC)cc2cccnc12 | 11 | 23.7 | – | – | 3.39 | 12.4 | 4.18 | 19 | 8.53 | 21.1 µM | 7.68 | 24 µM | 14 | 29.3 | 16.4 | 37.3
14 | NC(N)=N/N=C/c1c(-c2cc(Cl)sc2Cl)nc2sccn12 | 0.703 | 1.41 | 1.32 | 3.14 µM | 1.04 | 2.84 | 1.55 | 6.15 | 0.729 | 1.56 µM | 1.01 | 2.87 µM | 1.62 | 6.15 | – | –
15 | CC1COc2c(N3CCN(C)CC3)c(F)cc3c(=O)c(C(=O)O)cn1c23 (stereo not given) | > 100 | > 100 | 96.8 | > 100 µM | > 100 | > 100 | > 100 | > 100 | > 100 | > 100 µM | > 100 | > 100 µM | > 100 | > 100 | – | –
16 | CC(=O)c1cc(C(=O)c2ccc3c(c2)Sc2ccccc2N3)c2c(C)cc(C)cn12 | 0.605 | > 40.1 | 0.222 | > 100 µM | 0.405 | > 100 | 0.362 | > 100 | 0.402 | 2.13 µM | 0.344 | > 100 µM | 0.187 | 0.94 | – | –
17 | O=C1NC(=O)C(=C/C=C/c2ccccc2)C(=O)N1 | 2.32 | 5.65 | 4.94 | 70 µM | 3.01 | 17.8 | 4.59 | 23.4 | 2.24 | 4.94 µM | 2.2 | 7.06 µM | – | – | 2.91 | 8.08
